Measurements: the Kinase Knowledgebase extract (Sharma et al. 2016)

biological target: CDK2 (human) (UniProt P24941); assay: Enzyme Assay

How did the IC50 turn out when CC(C)c1cnn2c(NCc3ccccc3-c3ccccn3)nc(O[C@@H]3CCCNC3)nc12 was run?
The IC50 was 50 to 500 nM.

How did the IC50 turn out when CC(C)c1cnn2c(NCc3ccccc3-c3cccs3)nc(OC3CCN(C)CC3)nc12 was run?
The IC50 was 50 to 500 nM.

With CC(C)c1cnn2c(NCc3ccccc3-c3cccs3)nc(O[C@@H]3CCNC3)nc12 as the molecule, how does the IC50 read?
Its IC50 is 50 to 500 nM.

How did the IC50 turn out when CC(C)c1cnn2c(NCc3cccc4cccnc34)nc(O[C@@H]3CCCNC3)nc12 was run?
The IC50 was 50 to 500 nM.

CC(C)c1cnn2c(NCc3ccccc3Br)nc(O[C@@H]3CCCNC3)nc12 was tested. Which IC50 did it give?
The IC50 was 50 to 500 nM.

With CC(C)c1cnn2c(NCc3ccccc3-n3cccn3)nc(S[C@@H]3CCCNC3)nc12 as the molecule, how does the IC50 read?
Its IC50 is 50 to 500 nM.

CC(C)c1cnn2c(NCc3ccccc3[S+](C)[O-])nc(O[C@@H]3CCCNC3)nc12 (stereo partly specified) was tested. Which IC50 did it give?
Its IC50 is 50 to 500 nM.

For CC(C)c1cnn2c(NCc3ccccc3-n3cccn3)nc(OC3CCNCC3)nc12, which IC50 is on record?
The IC50 was 50 to 500 nM.

CC(C)c1cnn2c(NCc3ccccc3-c3cccs3)nc(O[C@@H]3CCCNC3)nc12 was tested. Which IC50 did it give?
Its IC50 is ≤ 50 nM.

For CC(C)c1cnn2c(NCc3ccccc3-n3cncn3)nc([S+]([O-])C3CCNCC3)nc12 (stereo unspecified), which IC50 is on record?
Its IC50 is 50 to 500 nM.

How did the IC50 turn out when CC(C)Oc1ccccc1CNc1nc(O[C@@H]2CCCNC2)nc2c(C(C)C)cnn12 was run?
Its IC50 is 50 to 500 nM.

CC(C)c1cnn2c(NCc3ccccc3-n3cncn3)nc(O[C@@H]3CCNC3)nc12 was tested. Which IC50 did it give?
The IC50 was ≤ 50 nM.

For CC(C)c1cnn2c(NCc3ccccc3-n3cccn3)nc([S+]([O-])C3CCNCC3)nc12 (stereo unspecified), which IC50 is on record?
Its IC50 is 50 to 500 nM.

How did the IC50 turn out when CC(C)c1cnn2c(NCc3ccccc3OS(=O)C(C)(C)C)nc(O[C@@H]3CCCNC3)nc12 (stereo partly specified) was run?
The IC50 was 50 to 500 nM.

For CC(C)c1cnn2c(NCc3cccc(Cl)c3Cl)nc(O[C@@H]3CCCNC3)nc12, which IC50 is on record?
Its IC50 is 50 to 500 nM.

How did the IC50 turn out when CC(C)c1cnn2c(NCc3ccccc3-n3cccn3)nc(O[C@@H]3CCNC3)nc12 was run?
The IC50 was ≤ 50 nM.

For CNS(=O)(=O)c1ccccc1CNc1nc(O[C@@H]2CCCNC2)nc2c(C(C)C)cnn12, which IC50 is on record?
The IC50 was 50 to 500 nM.

Which IC50 does the source give for CC(C)c1cnn2c(NCc3ccccc3-n3cccn3)nc(NC3CCCNC3)nc12 (stereo unspecified) here?
Its IC50 is 50 to 500 nM.

With CC(C)c1cnn2c(NCc3ccccc3S(=O)(=O)N(C)C)nc(O[C@@H]3CCCNC3)nc12 as the molecule, how does the IC50 read?
The IC50 was 50 to 500 nM.

With CC(C)c1cnn2c(NCc3ccccc3-n3cccn3)nc(OC3C=CCNC3)nc12 (stereo unspecified) as the molecule, how does the IC50 read?
The IC50 was 50 to 500 nM.

For CC(C)c1cnn2c(NCc3ccccc3-n3ccnc3)nc(O[C@@H]3CCCNC3)nc12, which IC50 is on record?
Its IC50 is 50 to 500 nM.

Which IC50 does the source give for CC(C)c1cnn2c(NCc3ccccc3OC(F)F)nc(OC3CCN(C)CC3)nc12 here?
Its IC50 is 50 to 500 nM.

With CC(C)c1cnn2c(NCc3ccccc3-n3cccn3)nc(NC3CCNC3)nc12 (stereo unspecified) as the molecule, how does the IC50 read?
The IC50 was 50 to 500 nM.

CC(C)c1cnn2c(NCc3ccccc3N3CCCC3=O)nc(O[C@@H]3CCCNC3)nc12 was tested. Which IC50 did it give?
Its IC50 is 50 to 500 nM.

Which IC50 does the source give for CC(C)c1cnn2c(NCc3ccccc3OS(C)(=O)=O)nc(O[C@@H]3CCCNC3)nc12 here?
Its IC50 is 50 to 500 nM.

CC(C)c1cnn2c(NCc3ccccc3-c3cccs3)nc([S+]([O-])C3CCNCC3)nc12 (stereo unspecified) was tested. Which IC50 did it give?
The IC50 was 50 to 500 nM.

With CC(C)c1cnn2c(NCc3ccccc3-n3ccnc3)nc(O[C@@H]3CCNC3)nc12 as the molecule, how does the IC50 read?
The IC50 was 50 to 500 nM.

Which IC50 does the source give for CC(C)c1cnn2c(NCc3ccccc3-n3cncn3)nc(N[C@@H]3CCCNC3)nc12 here?
Its IC50 is ≤ 50 nM.

With CC(C)c1cnn2c(NCc3cccc(F)c3-n3cccn3)nc(O[C@@H]3CCCNC3)nc12 as the molecule, how does the IC50 read?
Its IC50 is ≤ 50 nM.

For CC(C)c1cnn2c(NCc3cccc4c3OCCCO4)nc(O[C@@H]3CCCNC3)nc12, which IC50 is on record?
The IC50 was 50 to 500 nM.

How did the IC50 turn out when CC(C)c1cnn2c(NCc3cc(F)ccc3-n3cccn3)nc(O[C@@H]3CCCNC3)nc12 was run?
The IC50 was ≤ 50 nM.

Which IC50 does the source give for CC(C)c1cnn2c(NCc3ccccc3Cl)nc(OC3CCN(C)CC3)nc12 here?
The IC50 was 50 to 500 nM.

How did the IC50 turn out when CC(C)c1cnn2c(NCc3ccccc3S(=O)(=O)N3CCN(C)CC3)nc(O[C@@H]3CCCNC3)nc12 was run?
Its IC50 is 50 to 500 nM.

Which IC50 does the source give for CNC1CCN(c2nc(NCc3ccccc3-n3cccn3)n3ncc(C(C)C)c3n2)CC1 here?
The IC50 was 50 to 500 nM.

With CC(C)c1cnn2c(NCc3ccccc3-c3nnnn3C)nc(O[C@@H]3CCCNC3)nc12 as the molecule, how does the IC50 read?
Its IC50 is 50 to 500 nM.

CC(C)c1cnn2c(NCc3ccccc3-n3cccn3)nc(N3CCC(N(C)C)CC3)nc12 was tested. Which IC50 did it give?
The IC50 was 50 to 500 nM.

With CC(C)c1cnn2c(NCc3cccc4[nH]ncc34)nc(O[C@@H]3CCCNC3)nc12 as the molecule, how does the IC50 read?
The IC50 was ≤ 50 nM.

For CC(C)c1cnn2c(NCc3ccccc3S(C)(=O)=O)nc(O[C@@H]3CCCNC3)nc12, which IC50 is on record?
Its IC50 is 50 to 500 nM.

How did the IC50 turn out when CC(C)c1cnn2c(NCc3c(F)cccc3-n3cccn3)nc(O[C@@H]3CCCNC3)nc12 was run?
Its IC50 is 50 to 500 nM.

CC(C)c1cnn2c(NCc3ccccc3-n3cncn3)nc(OC3CCN(C)CC3)nc12 was tested. Which IC50 did it give?
Its IC50 is 50 to 500 nM.

How did the IC50 turn out when CC(C)c1cnn2c(NCc3ccccc3-c3cccs3)nc(OC3CCNCC3)nc12 was run?
Its IC50 is 50 to 500 nM.

For CC(C)c1cnn2c(NCc3ccccc3C(N)=O)nc(O[C@@H]3CCCNC3)nc12, which IC50 is on record?
Its IC50 is 50 to 500 nM.

How did the IC50 turn out when COc1ccccc1CNc1nc(OC2CCN(C)CC2)nc2c(C(C)C)cnn12 was run?
The IC50 was 50 to 500 nM.

With CC(C)c1cnn2c(NCc3ccccc3-n3cncn3)nc(OC3CCNCC3)nc12 as the molecule, how does the IC50 read?
The IC50 was 50 to 500 nM.

How did the IC50 turn out when CC(C)c1cnn2c(NCc3ccccc3-n3cccn3)nc(O[C@@H]3CCCNC3)nc12 was run?
The IC50 was ≤ 50 nM.

Which IC50 does the source give for CC(C)c1cnn2c(NCc3cccc4c3cnn4C)nc(O[C@@H]3CCCNC3)nc12 here?
Its IC50 is ≤ 50 nM.

For CC(C)c1cnn2c(NCc3ccccc3-c3nnn(C)n3)nc(O[C@@H]3CCCNC3)nc12, which IC50 is on record?
Its IC50 is ≤ 50 nM.

CC(C)c1cnn2c(NCc3cccc4cc[n+]([O-])cc34)nc(O[C@@H]3CCCNC3)nc12 was tested. Which IC50 did it give?
The IC50 was 50 to 500 nM.

For CSc1ccccc1CNc1nc(O[C@@H]2CCCNC2)nc2c(C(C)C)cnn12, which IC50 is on record?
Its IC50 is 50 to 500 nM.

Which IC50 does the source give for CNC(=O)c1ccccc1CNc1nc(O[C@@H]2CCCNC2)nc2c(C(C)C)cnn12 here?
The IC50 was 50 to 500 nM.

CC(C)c1cnn2c(NCc3ccc(F)cc3-n3cccn3)nc(O[C@@H]3CCCNC3)nc12 was tested. Which IC50 did it give?
Its IC50 is ≤ 50 nM.

For CC(C)c1cnn2c(NCc3ccccc3C(F)(F)F)nc(OC3CCN(C)CC3)nc12, which IC50 is on record?
The IC50 was ≤ 50 nM.

For CC(C)c1cnn2c(NCc3ccccc3S(=O)(=O)N3CCCC3)nc(O[C@@H]3CCCNC3)nc12, which IC50 is on record?
The IC50 was 50 to 500 nM.

CC(C)c1cnn2c(NCc3ccccc3-n3cc(Cl)cn3)nc(O[C@@H]3CCCNC3)nc12 was tested. Which IC50 did it give?
The IC50 was 50 to 500 nM.

CC(C)c1cnn2c(NCc3cccc4ccncc34)nc(O[C@@H]3CCCNC3)nc12 was tested. Which IC50 did it give?
Its IC50 is 50 to 500 nM.

Which IC50 does the source give for CC(C)c1cnn2c(NCc3ccccc3-n3cccn3)nc(OC3C[C@H]4CNC[C@@H]34)nc12 (stereo partly specified) here?
The IC50 was 50 to 500 nM.
